Measured values: patent US20210387983A1, “CRYSTALLINE ALK5 INHIBITORS AND USES THEREOF” (THERAVANCE BIOPHARMA R&D IP, LLC, priority 2020, published 2021)

Test: Dynamic moisture sorption (DMS) analysis
Format: physicochemical
Conditions: for XRPD pattern of solid after two consecutive sorption-desorption cycles: 5-90% RH, 25° C.; for total moisture gain: exposed to 5-90% relative humidity, about 25° C.; for hygroscopicity: from DMS data
Method: Dynamic moisture sorption (DMS) analysis was performed on weighed samples of the crystalline forms of the compound of Formula I using a VTI atmospheric microbalance, SGA-100 system (VTI Corp., Hialeah, Fla. 33016). Following an initial drying step (approximately 0% RH) of 2 hours, two cycles of sorption and desorption were completed isothermally at 25° C. at a scan rate of 5% RH/step over a humidity range of 5 to 90% RH. Representative DMS traces of polymorph Form I and polymorph Form II of a fumarate salt of the compound of Formula I and polymorph Form III of the compound of Formula I (freebase) are shown in FIG. 4, FIG. 8 and FIG. 12, respectively.

Compound	XRPD pattern of solid after two consecutive sorption-desorption cycles	total moisture gain	hygroscopicity
C[C@@H]1CN(CCNc2cnc3ccc(-c4nc[nH]c4-c4cc(Cl)ccc4F)nc3c2)C[C@H](C)N1.O=C(O)/C=C/C(=O)O [polymorph Form II, 6-(5-(5-chloro-2-fluorophenyl)-1H-imidazol-4-yl)-N-(2-((3S,5R)-3,5-dimethylpiperazin-1-yl)ethyl)-1,5-naphthyridin-3-amine, fumaric Acid]	no change in form	about 0.85 % by weight	slightly-hygroscopic
C[C@@H]1CN(CCNc2cnc3ccc(-c4nc[nH]c4-c4cc(Cl)ccc4F)nc3c2)C[C@H](C)N1 [polymorph Form III, 6-(5-(5-chloro-2-fluorophenyl)-1H-imidazol-4-yl)-N-(2-((3S,5R)-3,5-dimethylpiperazin-1-yl)ethyl)-1,5-naphthyridin-3-amine]	no change in form	about 0.6 % by weight	slightly-hygroscopic
C[C@@H]1CN(CCNc2cnc3ccc(-c4nc[nH]c4-c4cc(Cl)ccc4F)nc3c2)C[C@H](C)N1.O=C(O)/C=C/C(=O)O [polymorph Form I, 6-(5-(5-chloro-2-fluorophenyl)-1H-imidazol-4-yl)-N-(2-((3S,5R)-3,5-dimethylpiperazin-1-yl)ethyl)-1,5-naphthyridin-3-amine, fumaric Acid]	no change in form	about 1.30 % by weight	slightly-hygroscopic
